Broadly, the IC50 is the concentration that inhibits the measured activity by half.

For twelve molecules, IC50 results are on record in US5869489A, “Trypthophan ureas as neurokinnin antagonists” (Merck & Co., Inc., priority 1997, dated 1999).

Structures are written as SMILES.

In one experiment the target is T1, human NK1R (Homo sapiens, UniProt P25103).
T1 construct: expressed in transfected cells
Kind of experiment: Binding assay of human NK1R expressed in COS or CHO cells, displacement of 125I-substance P (Table 1, hNK1). The following applies: human NK1 receptor, 125I-substance P ligand; read-out: hNK1 (IC50 nM). On the procedure: (§1) A. Receptor Expression in COS
(§2) To express the cloned human neurokinin-1 receptor (NK 1R) transiently in COS, the cDNA for the human NK 1R was cloned into the expression vector pCDM9 which was derived from pCDM 8 (INVITROGEN) by inserting the ampicillin resistance gene (nucleotide 1973 to 2964 from BLUESCRIPT SK+) into the Sac II site. Transfection of 20 μg of the plasmid DNA into 10 million COS cells was achieved by electroporation in 800 μl of transfection buffer (135 mM NaCl, 1.2 mM CaCl2, 1.2 mM MgCl2, 2.4 mM K2 HPO4, 0.6 mM KH2 PO4, 10 mM glucose, 10 mM HEPES pH 7.4) at 260 V and 950 uF using the IBI GENEZAPPER (IBI, New Haven, Conn.). The cells were incubated in 10% fetal calf serum, 2 mM glutamine, 100 U/ml penicillin-streptomycin, and 90% DMEM media (GIBCO, Grand Island, N.Y.) in 5% CO2 at 37° C. for three days before the binding assay. Similar methods were used to express the NK2 receptor.
(§3) B. Stable Expression in CHO
(§4) To establish a stable cell line expressing the cloned human NK1R, the cDNA was subcloned into the vector pRcCMV (INVITROGEN). Transfection of 20 μg of the plasmid DNA into CHO cells was achieved by electroporation in 800 μl of transfection buffer suplemented with 0.625 mg/ml Herring sperm DNA at 300 V and 950 uF using the IBI GENEZAPPER (IBI). The transfected cells were incubated in CHO media (10% fetal calf serum, 100 U/ml pennicilin-streptomycin, 2 mM glutamine, 1/500 hypoxanthine-thymidine(ATCC), 90% IMDM media (JRH BIOSCIENCES, Lenexa, Kans.), 0.7 mg/ml G418 (GIBCO)) in 5% CO2 at 37° C. until colonies were visible. Each colony was separated and propagated. The cell clone with the highest number of human NK1R was selected for subsequent applications such as drug screening. Similar methods were used to express the human NK2 receptor.
(§5) C. Assay Protocol using COS or CHO The binding assay of human NK1R expressed in either COS or CHO cells is based on the use of ^125 I-substance P (^125 I-SP, from DU PONT, Boston, Mass.) as a radioactively labeled ligand which competes with unlabeled substance P or any other ligand for binding to the human NK1R. […] In the binding assay, 500 μl of cells were added to a tube containing 20 μl of 1.5 to 0.25 nM of ^125 I-SP and 5 μl of unlabeled substance P or any other test compound in DMSO. The tubes were incubated at 4° C. or at room temperature for 1 hour with gentle shaking. The bound radioactivity was separated from unbound radioactivity by GF/C filter (BRANDEL, Gaithersburg, Md.) which was pre-wetted with 0.1% polyethylenimine. The filter was washed with 3 ml of wash buffer (50 mM Tris pH 7.5, 5 mM MnCl2, 150 mM NaCl) three times and its radioactivity was determined by gamma counter. A similar assay was used for NK2 except ^125 I-NKA was used as the ligand.
(Displacement assays read how much labelled ligand stays bound in the presence of the test substance.)

A further experiment has as its target T2, human NK2 receptor (Homo sapiens, UniProt P21452).
T2 construct: expressed in transfected cells
T2 sequence (P21452 1-398): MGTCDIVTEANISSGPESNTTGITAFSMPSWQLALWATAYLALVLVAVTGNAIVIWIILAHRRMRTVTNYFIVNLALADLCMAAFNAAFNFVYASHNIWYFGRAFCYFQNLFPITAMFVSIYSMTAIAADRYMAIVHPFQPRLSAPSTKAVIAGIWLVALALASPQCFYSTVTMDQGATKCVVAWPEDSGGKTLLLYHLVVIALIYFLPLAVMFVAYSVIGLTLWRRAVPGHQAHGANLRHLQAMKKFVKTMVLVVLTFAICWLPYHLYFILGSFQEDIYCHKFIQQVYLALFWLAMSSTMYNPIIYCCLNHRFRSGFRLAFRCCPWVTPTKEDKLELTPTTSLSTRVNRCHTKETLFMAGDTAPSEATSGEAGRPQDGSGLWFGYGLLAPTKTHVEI
Description: Binding assay of NK2 receptor expressed in COS or CHO cells, displacement of 125I-NKA (Table 1, hNK2). The following applies: human NK2 receptor, 125I-NKA ligand; read-out: hNK2 (IC50 nM). As for the experimental part:
as §1, §2, §3, §4, §5

T1 sequence (P25103 whole entry): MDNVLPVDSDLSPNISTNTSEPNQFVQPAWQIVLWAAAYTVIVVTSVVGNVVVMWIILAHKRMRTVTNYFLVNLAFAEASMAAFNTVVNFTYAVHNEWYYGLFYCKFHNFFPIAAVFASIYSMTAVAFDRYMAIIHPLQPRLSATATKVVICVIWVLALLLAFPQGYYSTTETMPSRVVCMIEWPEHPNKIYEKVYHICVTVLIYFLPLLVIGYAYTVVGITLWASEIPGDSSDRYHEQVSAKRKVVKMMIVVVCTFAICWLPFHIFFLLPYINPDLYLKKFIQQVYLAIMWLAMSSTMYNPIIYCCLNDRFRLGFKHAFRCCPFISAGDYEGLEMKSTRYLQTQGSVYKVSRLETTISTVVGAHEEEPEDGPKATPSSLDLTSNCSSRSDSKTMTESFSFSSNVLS

As to `CN(Cc1ccccc1)C(=O)[C@H](Cc1c[nH]c2ccccc12)NC(=O)N1CCN(Cc2ccccc2)CC1` [Example 10, N-Benzyl-N-methyl-2-(S)-((4-benzylpiperazino)-carbonyl-amino)-3-(3-indolyl)propionamide], the results for the IC50 at human NK1R and at human NK2 receptor were 60 nM and 100 nM, respectively.

On to `CN(Cc1ccccc1)C(=O)[C@@H](Cc1c[nH]c2ccccc12)NC(=O)N1CCC2(C=Cc3ccccc32)CC1` [Example 31, N-Benzyl-N-methyl-2-(R)-((spiro-1H-indene-1,4'-piperidino)-carbonyl-amino)-3-(3-indolyl)propionamide], for which the IC50 at human NK1R was 600 nM; at human NK2 receptor, 130 nM.

`CN(Cc1ccccc1)C(=O)[C@@H](NC(=O)N1CCC2(C=Cc3ccccc32)CC1)c1ccccc1` [Example 37, N-Benzyl-N-methyl-2-(S)-((spiroindine-1,4'-piperidino)-carbonyl-amino)-2-phenylacetamide]: the IC50 is 575 nM on human NK1R and 200 nM at human NK2 receptor.

For the molecule `CN(Cc1ccccc1)C(=O)[C@@H](Cc1c[nH]c2ccccc12)NC(=O)N1CCC(c2ccccc2)CC1` [Example 33], the IC50 on human NK1R came to 750 nM; at human NK2 receptor it was 250 nM.

For `C[C@@H](NC(=O)[C@H](Cc1c[nH]c2ccccc12)NC(=O)N1CCC2(CCc3ccccc32)CC1)c1ccccc1` [Example 22, N-(1(R)-Phenylethyl)-2(S)-((spiroindane-1,4'-piperidino)-carbonyl-amino)-3-(3-indolyl)propionamide], the IC50 at human NK1R stood at 1000 nM; on human NK2 receptor, 28 nM.

As to `Cc1cccc(CNC(=O)[C@H](Cc2c[nH]c3ccccc23)NC(=O)N2CCC3(CCc4ccccc43)CC2)c1` [Example 17, N-(3-Methylbenzyl)-2-(S)-((spiroindane-1,4'-piperidino)-carbonyl-amino)-3-(3-indolyl)propionamide], the IC50 on human NK1R stood at 60 nM; at human NK2 receptor it was 65 nM.

Turning to `CN(Cc1ccccc1)C(=O)[C@H](Cc1c[nH]c2ccccc12)NC(=O)N1CCC(Cc2ccccc2)CC1` [Example 8, N-Benzyl-N-methyl-2-(S)-((4-benzylpiperidino)-carbonyl-amino)-3-(3-indolyl)propionamide], the half-inhibitory concentration (IC50) on human NK1R is 90 nM; on human NK2 receptor, 25 nM.

`CN(Cc1ccccc1)C(=O)[C@@H](Cc1c[nH]c2ccccc12)NC(=O)N1CCC2(CC1)CN(S(C)(=O)=O)c1ccccc12` [Example 32, N-Benzyl-N-methyl-2-(R)-((1-methanesulfonyl-spiroindoline-3,4'-piperidino)-carbonyl-amino)-3-(3-indolyl)propionamide]: the results for the half-inhibitory concentration (IC50) at human NK1R and at human NK2 receptor were 200 nM and 180 nM, respectively.

As to `CN(Cc1cccc(C(F)(F)F)c1)C(=O)[C@H](Cc1c[nH]c2ccccc12)NC(=O)N1CCC2(CC1)CN(S(C)(=O)=O)c1ccccc12` [Example 26, N-(3-Trifluoromethylphenyl)methyl-N-methyl-2-(S)-((1-methanesulfonyl-spiroindoline-3,4'-piperidino)-carbonyl-amino)-3-(3-indolyl)propionamide], the figures for the IC50 on human NK1R and on human NK2 receptor were 7.5 nM and 127 nM, respectively.

`COc1ccccc1N1CCN(C(=O)N[C@@H](Cc2c[nH]c3ccccc23)C(=O)N(C)Cc2ccccc2)CC1` [Example 12, N-Benzyl-N-methyl-2-(S)-((4-(2-methoxyphenyl)piperazino)-carbonyl-amino)-3-(3-indolyl)propionamide]: the results for the IC50 at human NK1R and at human NK2 receptor were 20 nM and 25 nM, respectively.

Regarding `CN(Cc1ccccc1)C(=O)[C@H](Cc1ccccc1)NC(=O)N1CCC2(C=Cc3ccccc32)CC1` [Example 36, N-Benzyl-N-methyl-2-(S)-((spiroindine-1,4'-piperidino)-carbonyl-amino)-3-phenylpropionamide], the IC50 worked out at 300 nM on human NK1R and 200 nM on human NK2 receptor.

Consider `Cc1ccc(CNC(=O)[C@H](Cc2c[nH]c3ccccc23)NC(=O)N2CCC3(CCc4ccccc43)CC2)cc1` [Example 18, N-(4-Methylbenzyl)-2-(S)-((spiroindane-1,4'-piperidino)-carbonyl-amino)-3-(3-indolyl)propionamide], for which the IC50 at human NK1R amounted to 100 nM; on human NK2 receptor, 200 nM.
